Key:
[1] = target: T1, GST (glutathione S-transferase); test: CDNB-GSH conjugation, […] nm (Habig); type: biochemical; conditions: CDNB and GSH, phosphate pH […]
T1 construct: PDB 7BIB is only the docking model

[2] = target: T1, GST (glutathione S-transferase); test: CDNB-GSH conjugation, […] nm, Lineweaver–Burk; type: biochemical; conditions: CDNB and GSH, phosphate pH […]

SMILES | IC50 [1] [µM] | Ki [2] [µM]
C=C(CC)C(=O)c1ccc(OCC(=O)O)c(Cl)c1Cl [Ethacrynic acid, reference compound] | 0.374 | 9.39 ± 3.3
COc1ccc(NN=C2C(=NNC(N)=S)CCCC2=NNC(N)=S)cc1 [L, 2,2′-(2-(2-(4-methoxyphenyl)hydrazineylidene)cyclohexane-1,3-diylidene)bis(hydrazine-1-carbothioamide)] | 2.19 | 11.7 ± 5.45

Reference: paper PMC11909086, “Synthesis and characterization of novel bis(thiosemicarbazone) complexes and investigation of their acetylcholinesterase and glutathione S-transferase activities with in silico and in vitro studies” (Molecular Diversity, 2024)
